From PMC9571302, “Evaluation of Major Constituents of Medicinally Important Plants for Anti-Inflammatory, Antidiabetic and AGEs Inhibiting Properties: In Vitro and Simulatory Evidence” (Molecules, 2022)
Like-named read-outs stand apart in the source and are kept apart here. Blank lines part the entries; values can stand above or below the compound they belong to.

What was measured:
[1] = target: T1, bovine serum albumin (BSA) glycation by methylglyoxal (Bos taurus, UniProt P02769); experiment: AGEs assay, oxidative (BSA-MGO assay); format: biochemical
T1 construct: purchased Merck (Dorset, UK) and Oxoid (Hampshire, UK)
T1 sequence (P02769 25-607): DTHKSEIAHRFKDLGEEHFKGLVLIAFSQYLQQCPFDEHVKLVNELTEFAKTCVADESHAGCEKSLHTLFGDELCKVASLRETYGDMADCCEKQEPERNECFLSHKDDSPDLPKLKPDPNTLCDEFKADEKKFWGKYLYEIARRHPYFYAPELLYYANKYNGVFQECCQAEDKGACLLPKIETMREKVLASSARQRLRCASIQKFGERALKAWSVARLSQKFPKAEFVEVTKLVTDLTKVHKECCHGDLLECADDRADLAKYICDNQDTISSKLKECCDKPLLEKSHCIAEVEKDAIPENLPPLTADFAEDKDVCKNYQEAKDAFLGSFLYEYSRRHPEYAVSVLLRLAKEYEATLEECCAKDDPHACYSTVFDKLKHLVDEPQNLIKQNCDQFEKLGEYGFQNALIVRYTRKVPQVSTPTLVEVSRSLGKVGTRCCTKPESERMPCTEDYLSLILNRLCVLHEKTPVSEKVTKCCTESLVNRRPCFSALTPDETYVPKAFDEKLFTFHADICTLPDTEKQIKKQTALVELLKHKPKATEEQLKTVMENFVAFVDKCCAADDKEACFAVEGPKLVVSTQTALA
Method: The test samples were added to this reaction mixture and stored at 37 °C for a week. […] The control samples used for the experiment were prepared using the same protocol without a test sample.
The AGEs inhibition was determined as % inhibition = {1 − [(Fluo (BSA + MGO + test substance) − Fluo (BSA + test substance)]/[(Fluo (BSA + MGO) − Fluo (BSA)]} × 100 where Fluo is the fluorescence intensity. The IC50 was calculated using MS Excel.

[2] = target: T2, bovine serum albumin (BSA) glycation by glucose (Bos taurus, UniProt P02769); experiment: AGEs assay, non-oxidative (BSA-glucose assay); format: biochemical
T2 construct: purchased Merck (Dorset, UK) and Oxoid (Hampshire, UK)
T2 sequence (P02769 25-607): as above
Method: 4.5.2. AGEs Assay (BSA-Glucose Assay)
The AGEs assay was accomplished by using a standard protocol. The protein source (bovine serum albumin, BSA) (10 mg/mL; 135 µL) was mixed with D-glucose solution (500 mM, 135 µL in phosphate buffer; 50 mM, pH 7.4), NaN3 (sodium azide; 0.02%) and test samples (various concentrations). The reaction mixtures were kept at 60 °C for 1 week to facilitate glycation. Finally, trichloroacetic acid (10 µL, 100%) was added to it to stop the reaction and precipitate the unbound material. […] Aminoguanidine was used as positive control. The control samples used for the experiment were prepared using the same protocol without the test sample.
The AGEs inhibition was calculated as % inhibition = {1 − [Fluo(BSA + glucose + test substance) − Fluo (BSA + test substance)]/[Fluo (BSA + glucose) − Fluo(BSA)]} × 100 where Fluo is the fluorescence intensity. The IC50 was calculated using MS Excel.

[3] = target: T3, BSA cross-link formation (BSA-MGO) (Bos taurus, UniProt P02769); experiment: Protein cross-linking assay by SDS-PAGE, BSA-MGO; format: biochemical, bovine; settings: SDS-PAGE integrated density
T3 construct: purchased Merck (Dorset, UK) and Oxoid (Hampshire, UK)
T3 sequence (P02769 25-607): as above
Method: (§1) 4.5.4. Protein Cross-Linking Assay
(§2) Protein cross-linked by AGEs were observed by SDS-PAGE (sodium dodecyl sulphate-polyacrylamide gel electrophoresis). In this experiment, gels (10%) were made and stained with dye (0.25% Coomassie blue). The protein samples (6 µL) were diluted with Tris–HCl buffer (3.75 mL, 0.05 M; pH 6.8) also comprising sodium dodecyl sulphate (150 µL, 10% w/v), 2-mercaptoethanol 1% (v/v) and glycerin 20% v/v), followed by boiling for 5 min. The ladder (12 μL) was loaded into the well on gel preceded by the loading of bromophenol blue (2 μL). After loading, the electrophoresis was accomplished by using the Mini-Protean® Tetra Cell apparatus (Bio-Rad, UK). Afterwards, the gels were stained in a solution containing Coomassie blue [0.25% (w/v)], methanol [50% (v/v)] and acetic acid [10% (v/v)].
(§3) 4.5.5. SDS-PAGE Gels Image Analysis
(§4) The developed gel was stained with Coomassie blue and images were obtained using GelDoc. Finally, the Image J tool was used for the determination of integrated density (IntDen). The integrated density was employed further for the determination of percentage inhibition. The integrated density (ID) was determined as follows:Integrated density (ID) = N × (mean − background) where N is the number of pixels in the selection and the background is the modal grey value (most common pixel value) after smoothing the histogram.

α-glucosidase = experiment: α-Glucosidase inhibition assay; format: biochemical, Saccharomyces cerevisiae
Method: 4.5.1. α-Glucosidase Inhibition Assay
The α-glucosidase inhibition experiment was accomplished by using a modified method. Initially, the enzyme solution (from Saccharomyces cerevisiae) (0.2 units/mL dissolved in 0.1 M phosphate buffer; pH 6.8) was mixed with the test sample (1 to 0.039 mg/mL) and incubated in an oven (37 °C for 10 min). After incubation, the substrate (p-nitrophenyl-α-D-glucopyranoside; 0.29 mM) was added to the enzyme and test sample solution and incubated for another 30 min (37 °C).
The percentage of inhibition was determined using the following formula: % Inhibition = [1 − absorbance of test sample/absorbance of control] × 100

15-LOX (lipoxygenase) = target: T4, 15-LOX (lipoxygenase) (Glycine max, UniProt P08170); experiment: 15-Lipoxygenase assay; format: biochemical
T4 construct: purchased Merck (Dorset, UK) and Oxoid (Hampshire, UK)
T4 sequence (P08170 1-839): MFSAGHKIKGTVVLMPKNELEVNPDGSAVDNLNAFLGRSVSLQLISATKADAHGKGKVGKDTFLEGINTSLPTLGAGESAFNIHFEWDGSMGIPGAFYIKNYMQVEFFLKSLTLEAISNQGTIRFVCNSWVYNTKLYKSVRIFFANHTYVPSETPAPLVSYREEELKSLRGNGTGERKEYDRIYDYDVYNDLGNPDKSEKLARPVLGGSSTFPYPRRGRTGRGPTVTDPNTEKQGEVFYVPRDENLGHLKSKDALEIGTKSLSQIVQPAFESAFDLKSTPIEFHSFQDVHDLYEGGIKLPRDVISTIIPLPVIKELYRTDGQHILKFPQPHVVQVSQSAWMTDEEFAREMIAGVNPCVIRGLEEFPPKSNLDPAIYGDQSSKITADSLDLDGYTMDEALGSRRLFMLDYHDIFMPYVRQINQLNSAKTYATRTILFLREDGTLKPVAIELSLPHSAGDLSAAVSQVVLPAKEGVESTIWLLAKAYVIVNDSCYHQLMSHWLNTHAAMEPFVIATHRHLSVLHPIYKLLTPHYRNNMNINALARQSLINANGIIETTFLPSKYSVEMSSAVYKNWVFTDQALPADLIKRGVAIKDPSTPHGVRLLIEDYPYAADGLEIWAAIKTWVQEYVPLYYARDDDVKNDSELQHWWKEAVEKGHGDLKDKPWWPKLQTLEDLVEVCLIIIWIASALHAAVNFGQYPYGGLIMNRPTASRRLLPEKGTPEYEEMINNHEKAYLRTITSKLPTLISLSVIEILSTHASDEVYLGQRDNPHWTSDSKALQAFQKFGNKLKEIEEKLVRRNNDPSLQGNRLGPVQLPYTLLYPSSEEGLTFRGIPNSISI
Method: The anti-inflammatory activity of test samples was evaluated using a standard protocol [65]. To the enzyme solution (200 units/mL; 487.5 µL), different concentrations of test sample (12.5 µL (2–0.062 mM) in DMSO were added and incubated for 5 min at 37 °C. The absorbance was recorded immediately after the addition of substrate (500 µL of substrate (250 mM linoleic acid in 0.2 M borate buffer, pH 9) and after every min up to 5 min at 234 nm by using a UV spectrophotometer (UV-1601, SHEMADZU, Kyoto, Japan).
The percentage inhibition of enzyme activity was calculated as follows:% inhibition = ([ΔA1/Δt] − [ΔA2/Δt]/(ΔA1/Δt) × 100 where ΔA1/Δt and ΔA2/Δt are the increase rate in absorbance at 234 nm for a sample without test substance and with test substance, respectively.

[4] = target: T5, BSA cross-link formation (BSA-glucose) (Bos taurus, UniProt P02769); experiment: Protein cross-linking assay by SDS-PAGE, BSA-glucose; format: biochemical, bovine; settings: SDS-PAGE integrated density
T5 construct: purchased Merck (Dorset, UK) and Oxoid (Hampshire, UK)
T5 sequence (P02769 25-607): as the sequence (P02769 25-607) above
Method: as §1, §2, §3, §4

[5] = read-out: 15-LOX Assay (% Inhibition)
[6] = oxidative mode, Table 6, read-out: Protein Glycation BSA-MGO (IC50) (converted)
[7] = non-oxidative mode, Table 6, read-out: Protein Glycation BSA-Glucose (IC50) (converted)

Compound: C=C1CC[C@H]2O[C@]2(C)CC[C@@H]2[C@@H]1CC2(C)C [Caryophyllene oxide, caryophyllene-oxide]
Protein Glycation BSA-MGO (IC50) ([1]; oxidative mode, Table 6): Inactive
Protein Glycation BSA-Glucose (IC50) ([2]; non-oxidative mode, Table 6): Inactive
Inhibition of protein cross-link formation [3]: 35%
α-Glucosidase (IC50) (α-glucosidase): Inactive
15-LOX Assay (% Inhibition) (15-LOX (lipoxygenase); 12.5 µg/mL): 50.0± 0.1% ^2

Compound: S=C=NCCc1ccccc1 [2-Phenylethylisothiocyanate, 2-phenylethylisothiocyanate]
Protein Glycation BSA-MGO (IC50) [1]: Inactive
Protein Glycation BSA-Glucose (IC50) [2]: Inactive
Inhibition of protein cross-link formation [3]: 48%
α-Glucosidase (IC50) (α-glucosidase): 28.9 ± 0.1 µg/mL
15-LOX Assay (% Inhibition) (15-LOX (lipoxygenase); 25 µg/mL): Inactive ^5

Compound: C/C1=C\CC/C(C)=C/CC(C)(C)/C=C/C1 [α-Humulene, α-humulene]
Protein Glycation BSA-MGO (IC50) ([1]; oxidative mode, Table 6): Inactive
Protein Glycation BSA-Glucose (IC50) ([2]; non-oxidative mode, Table 6): Inactive
Inhibition of protein cross-link formation [3]: 40%
α-Glucosidase (IC50) (α-glucosidase): Inactive
15-LOX Assay (% Inhibition) (15-LOX (lipoxygenase); 13.0 µg/mL): 60.0 ± 0.1% ^3

α-Glucosidase (IC50) (α-glucosidase): 8.2 µg/mL
Compound: O=C(O)c1cc(O)c(O)c(O)c1 [gallic acid]

Compound: C[C@@H]1O[C@@H](Oc2c(-c3ccc(O)c(O)c3)oc3cc(O)cc(O)c3c2=O)[C@H](O)[C@H](O)[C@H]1O [Quercitrin, quercitrin]
IC50 [1]: 758 µM
IC50 [2]: 201 µM
α-Glucosidase (IC50) (α-glucosidase): 7.6 ± 0.1 µg/mL
Inhibition of protein cross-link formation [4]: 55%
inhibition at 16.2 µg/mL (15-LOX (lipoxygenase); [5]): 65 ± 0.1%

Compound: C[C@@H]1O[C@@H](OC[C@H]2O[C@@H](Oc3c(-c4ccc(O)c(O)c4)oc4cc(O)cc(O)c4c3=O)[C@H](O)[C@@H](O)[C@@H]2O)[C@H](O)[C@H](O)[C@H]1O [Rutin, reference compound]
IC50 [1, 6]: 1670 µM
IC50 [2, 7]: 49.1 µM
inhibition at 12.5 µg/mL (15-LOX (lipoxygenase); 12.5 µg/mL): 62 ± 0.1%

Compound: O=C1C=CC(=O)c2c(O)cccc21 [Juglone, juglone]
IC50 [1, 6]: 632 µM
IC50 [2, 7]: 345 µM
Inhibition of protein cross-link formation [3]: 39%
α-Glucosidase (IC50) (α-glucosidase): 5.7 ± 0.1 µg/mL
inhibition at 2.5 µg/mL (15-LOX (lipoxygenase); 2.5 µg/mL): 57 ± 0.1%

Compound: C=CCc1ccc(O)c(OC)c1 [Eugenol, eugenol]
Protein Glycation BSA-MGO (IC50) [1]: Inactive
IC50 [2]: 244 µM
α-Glucosidase (IC50) (α-glucosidase): Inactive
inhibition at 83 µg/mL (15-LOX (lipoxygenase); [5]): 51 ± 0.2%

Compound: O=c1c(O)c(-c2ccc(O)c(O)c2)oc2cc(O)cc(O)c12 [Quercetin, quercetin]
Inhibition of protein cross-link formation [4]: 53%
inhibition at 25 µg/mL (15-LOX (lipoxygenase); 25 µg/mL): 62 ± 0.1%

Protein Glycation BSA-MGO (IC50) [1]: Inactive
IC50 [2]: 1670 µM
α-Glucosidase (IC50) (α-glucosidase): 24.4 ± 0.1 µg/mL
Inhibition of protein cross-link formation [4]: 51%
inhibition at 14.1 µg/mL (15-LOX (lipoxygenase); 14.1 µg/mL): 53 ± 0.1%
Compound: O=c1cc(-c2ccc(O)cc2)oc2cc(O)cc(O)c12 [Apigenin, apigenin]

Compound: C=C1CC/C=C(\C)CC[C@@H]2[C@@H]1CC2(C)C [Caryophyllene, trans-caryophyllene]
Protein Glycation BSA-MGO (IC50) [1]: Inactive
Protein Glycation BSA-Glucose (IC50) [2]: Inactive
α-Glucosidase (IC50) (α-glucosidase): Inactive
15-LOX Assay (% Inhibition) (15-LOX (lipoxygenase); 25 µg/mL): Inactive ^6
